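Each compound was tested at five concentrations against cells in 96-well plates for 48 hours. GI50 marks 50% less growth. TGI marks complete inhibition of growth.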 A value given as a limit tells only on which side of the number the result lay.

Among the test systems are LXFL 529 NSCLC; XF 498 CNS; DMS 273 small cell lung; M19-MEL melanoma; SNB-78 CNS; DMS 114 small cell lung; HOP-18 NSCLC; MDA-N; RXF-631 renal; P388 leukemia; P388/ADR leukemia.
What all share (experiment): NCI tumour cell line growth inhibition, 48 h

Turning to `COC(=O)CCC(NC(=S)N/N=C(\C)c1ccc[nH]1)C(=O)OC` (centres undefined), the TGI in the assay with LXFL 529 NSCLC, with XF 498 CNS, in the assay with DMS 273 small cell lung, in the assay on M19-MEL melanoma, in the assay with SNB-78 CNS and in the assay on DMS 114 small cell lung was over 100 µM throughout. In addition, the TGI in the assay on HOP-18 NSCLC was over 100 µM.
Turning to `C(/C=N/NC1=NCCCCN1)=N\NC1=NCCCCN1`, in the assay on MDA-N, the TGI is over 100 µM.
As for `CCC[CH2][Sn]([CH2]CCC)([O]C(=O)c1cc(OC)c(OC)cc1OC)[O][Sn]([CH2]CCC)([CH2]CCC)[O]C(=O)c1cc(OC)c(OC)cc1OC`, the GI50 was 0.0599 µM with LXFL 529 NSCLC; 0.196 µM in the assay with XF 498 CNS; 0.762 µM in the assay on DMS 273 small cell lung; 0.158 µM in the assay with RXF-631 renal; 0.347 µM with M19-MEL melanoma; 0.402 µM in the assay on SNB-78 CNS. Further, the values for the GI50 with DMS 114 small cell lung and in the assay on HOP-18 NSCLC were 0.314 µM and 1.78 µM, respectively. Also, the TGI turned out to be 0.214 µM in the assay with LXFL 529 NSCLC; 0.508 µM in the assay with XF 498 CNS; 1.76 µM in the assay on DMS 273 small cell lung; 0.365 µM with RXF-631 renal; 1.7 µM in the assay with M19-MEL melanoma; 1.51 µM in the assay with SNB-78 CNS. The TGI was 1.26 µM in the assay with DMS 114 small cell lung and 3.16 µM in the assay with HOP-18 NSCLC.
Take `COc1cc(/C=C/c2ccc(C)cc2)cc(OC)c1OC`: the TGI in the assay on LXFL 529 NSCLC is over 48.8 µM; with XF 498 CNS, 13.9 µM; in the assay on DMS 273 small cell lung, 17.6 µM; with M19-MEL melanoma it was over 88.9 µM; in the assay on SNB-78 CNS, 9.81 µM; in the assay with DMS 114 small cell lung it was over 100 µM. Besides, the results for the TGI in the assay on HOP-18 NSCLC and in the assay on MDA-N were over 100 µM and 2.89 µM, respectively.
Consider `C/C(CC(=O)NCCc1ccccc1)=N\NS(=O)(=O)c1ccc(C)cc1`, for which the TGI with LXFL 529 NSCLC, with XF 498 CNS, with DMS 273 small cell lung, in the assay with RXF-631 renal, in the assay with M19-MEL melanoma and in the assay with SNB-78 CNS was over 100 µM each time. The compound also gave a TGI with DMS 114 small cell lung of over 100 µM.
For the compound `O=C(/C=C(\O)C(=O)O)/C=C(\O)c1ccccc1`, the GI50 is over 1 µM in the assay on LXFL 529 NSCLC; over 1 µM in the assay with XF 498 CNS; over 1 µM in the assay on DMS 273 small cell lung; over 1 µM in the assay on M19-MEL melanoma; over 1 µM in the assay on SNB-78 CNS; over 100 µM in the assay on DMS 114 small cell lung. Besides, the TGI in the assay with LXFL 529 NSCLC, in the assay with XF 498 CNS, in the assay with DMS 273 small cell lung, in the assay on M19-MEL melanoma, in the assay on SNB-78 CNS and with DMS 114 small cell lung was over 100 µM in each case. This compound also displayed a TGI with HOP-18 NSCLC of over 100 µM.
As to `O=[N+]([O-])c1cccc(/C=N/NC2=CS(=O)(=O)C=C2)c1`, in the assay with MDA-N, the TGI is over 100 µM.
On to `O=S(=O)(O)O`, for which the TGI with DMS 273 small cell lung is 540 µM; with P388 leukemia it was over 1820 µM; with SNB-78 CNS, 2930 µM; with P388/ADR leukemia it was over 3000 µM; in the assay with HOP-18 NSCLC, 1680 µM; in the assay on MDA-N, 360 µM.
On to `O=c1cc(-c2ccccn2)[nH]c2cccc(F)c12`, for which the TGI with LXFL 529 NSCLC, in the assay on RXF-631 renal, in the assay on M19-MEL melanoma, in the assay on SNB-78 CNS, with DMS 114 small cell lung and in the assay on HOP-18 NSCLC was over 100 µM throughout.
As to `Fc1cccc(F)c1C1SCc2nc3cc(Cl)c(Cl)cc3n21` (centres undefined), the TGI in the assay with MDA-N is over 100 µM.
On to `Cc1cc2c(c(C(N)=O)c1C)-c1cccc(F)c1C2=O`, for which the TGI in the assay with LXFL 529 NSCLC, in the assay with XF 498 CNS, with DMS 273 small cell lung, with M19-MEL melanoma, with SNB-78 CNS and in the assay on DMS 114 small cell lung was over 100 µM throughout.
Regarding `COc1ccccc1N=Nc1c(-c2ccccc2)nn(C(=O)CC(=O)Nc2cccc(C)c2)c1-c1ccccc1`, the TGI in the assay on LXFL 529 NSCLC is over 100 µM; with XF 498 CNS, 61.5 µM; in the assay with DMS 273 small cell lung it was over 100 µM; with RXF-631 renal, over 100 µM; in the assay with M19-MEL melanoma, over 100 µM; in the assay on SNB-78 CNS it was over 100 µM. For the same compound, the TGI is 77.1 µM in the assay on DMS 114 small cell lung and over 100 µM with HOP-18 NSCLC.
Take `O=c1c2c([nH]c3nccn13)CCC2`: the TGI with MDA-N was over 10 µM.
Take `[N-]=[N+]=NC(c1cn(C2CC(O)C(CO)O2)c(=O)[nH]c1=O)C(Cl)Br` (centres undefined): the TGI in the assay with LXFL 529 NSCLC, with DMS 273 small cell lung, in the assay on M19-MEL melanoma, in the assay with SNB-78 CNS, in the assay with DMS 114 small cell lung and in the assay with HOP-18 NSCLC was over 100 µM in each case.
In the assay with MDA-N, `CN1C(=O)c2ccc3ccccc3c2C1=O` had a TGI of over 100 µM.
Same read-out and setting: the same measure for `N#CC(CCN1CCC(Nc2ccccc2)(c2nnnn2C2CCCCC2)CC1)(c1ccccc1)c1ccccc1`: over 100 µM; for `COc1ccc(-c2c(C)c(C(=O)O)nc(-c3ccc4c(O)c(OC)c5c(c4n3)=NC(C)(C)N=5)c2N)c(O)c1OC`: 39.9 µM.
As for `O=c1cccccc1[O-].O=c1cccccc1[O-].O=c1cccccc1[O-].[Eu+3]`, in the assay with DMS 273 small cell lung, the GI50 was 16.9 µM and the TGI is over 100 µM. Further, in the assay with SNB-78 CNS, the GI50 is 20.1 µM and the TGI is over 100 µM.

Source of the values: PubChem BioAssay (NCI).
